Source: patent US11950594B2, “Methods and compositions for inhibiting formation of biofilms” (INSTITUTE OF MICROBIOLOGY, CHINESE ACADEMY OF SCIENCES, priority 2019, dated 2024)

Assays:
Pseudomonas aeruginosa = experiment: Virulence in cabbage model; assay type: in vivo; conditions: C9 5 mM, 37° C., 36 hours, CFU
Procedure: The PAO1 culture inoculated with the coumarin-chalcone compound C9 (5 mM) was injected into a cabbage model and incubated at 37° C. for 36 hours. Then the colony phenotype was observed and colony-forming units (CFU) were calculated.
In the embodiment, the cabbage model was used to carry out the vivo experiment in vivo to study whether the coumarin-chalcone compound C9 affects the virulence of Pseudomonas aeruginosa. FIG. 9 is a schematic diagram illustrating virulences of bacteria of a blank group, a control group, and an experimental group treated with a coumarin-chalcone compound C9.

pKa by HCl/KOH titration = assay type: physicochemical; conditions: titration with HCl (25 mM) and KOH (25 mM)
Procedure: UV-Vis spectral analysis was used to study the stability of the coumarin-chalcone compound C9 at a pH range of 3.4 to 8.4. […] After reaching pH=2, KOH (25 mM) was added slowly until the pH reached 12. In this way, a graph of a relationship between the pH and the volume of KOH added was plotted to find an equivalent point and thus the pKa.

LasR = experiment: QS gene expression, GFP promoter fusion; assay type: cell-based, Pseudomonas aeruginosa; conditions: FIGS. 8A to 8D
Description: (§1) The QS system may regulate the formation of biofilm and the expression of multiple virulence factors. Whether the coumarin-chalcone compound C9 influences the QS regulation system was further studied. In the embodiment, a green fluorescent protein (GFP) was used as a reporter gene to examine the influence of the coumarin-chalcone compound C9 on the QS system. In this experiment, the transcription regulator genes (including LasR, RhIR, and PqsR) in three QS systems of Pseudomonas aeruginosa were used to study the gene expression of the QS system. By PCR expansion, promoter regions of the three genes were transcriptionally fused with a promoterless GFP fusion expression vector pProbe-AT, respectively, to construct transcription fusion plasmids that can indicate the expression level of LasR, RhIR, and PqsR genes, which were used as representatives of the expression of the three QS systems.
(§2) The overnight cultured bacterial solution was inoculated into the freshly prepared LB liquid medium to make its OD600 at 0.25, and then cultured for 2 h. Fluorescence was measured at 4 h, 8 h, 12 h, 16 h, 20 h, 24 h, respectively, and the measurement was performed in a 96-well plate. Bacterial growth was monitored by measuring OD600. The gene expression level was normalized by dividing the fluorescence value by the OD600 value of each sample.
(§3) The effects of the coumarin-chalcone compound C9 on the transcription of the three known QS regulators LasR, RhIR, and PqsR were examined by gfp fusion. FIGS. 8A to 8D are schematic diagrams illustrating the inhibition of QS systems in P. aeruginosa by compound C9. The transcription of QS-related genes (LasI, LasR, RhII, RhIR, PqsA, and PqsR) was indicated by the green fluorescent intensity of GFP-tagged promoter region through pPROBE-AT′ plasmid, the data of a blank group, a control group, and an experimental group treated with a coumarin-chalcone compound C9 were presented.

RhIR = experiment: QS gene expression, GFP promoter fusion; assay type: cell-based, Pseudomonas aeruginosa; conditions: FIGS. 8A to 8D
Description: as §1, §2, §3

PqsR = experiment: QS gene expression, GFP promoter fusion; assay type: cell-based, Pseudomonas aeruginosa; conditions: FIGS. 8A to 8D
Description: as §1, §2, §3

[1] = test system: Psl polysaccharide production; experiment: Psl immunoblot analysis; assay type: cell-based, Pseudomonas aeruginosa; conditions: C9 5 mM, Jensen media, 37° C., 24 hours
Procedure: Pseudomonas aeruginosa PAO1 was inoculated in Jensen media at 37° C. for 24 hours with shaking and treated with the coumarin-chalcone compound C9 (5 mM) or DMSO (5 mM), respectively. OD600 values of the overnight cultured bacterial solutions were measured, and a bacterial solution with an OD (optical density) of 10 was collected. The bacterial solution with the OD of 10 was a bacterial solution whose OD600 was 2 and the collected volume was 5 mL. The bacterial solution was centrifuged at 13000 r/min for 5 min and the corresponding supernatant was discarded. The obtained precipitate was dissolved in 100 μL of 0.5 M EDTA. Then the EDTA solution was boiled at 100° C. for 5 min and centrifuged, and the precipitate was discarded. The obtained supernatant was treated with proteinase K (final concentration, 0.5 mg/mL) for 1 h at 60° C., followed by inactivation of proteinase K for 30 min at 80° C. to obtain a polysaccharide extract. A volume of 3 μL of polysaccharide extract was spotted onto a nitrocellulose membrane and dried. After washing with TBST for 3 times, a blocking was done with 10% skimmed milk at room temperature for 1 h. The anti-Psl antibody (i.e., a primary antibody) (1:25,000 dilution) was added and then solution was treated at 25° C. for 1 h. […] Western blot data was quantitatively analyzed using Image Lab™ 5.1 software.

PAO1 strains = experiment: Bacterial motility assay, swimming plate; assay type: cell-based, Pseudomonas aeruginosa; conditions: 37° C., 24 hours
Procedure: PAO1 strains were inoculated into a LBNS agar plate and were cultured overnight at 37° C. Single colonies were respectively inoculated on the surface of swimming plates with and without the coumarin-chalcone compound C9, and cultured at 37° C. for 24 hours. Then, a diameter of a translucent area formed by bacterial swimming on each swimming plate was measured.

SMILES: COc1cccc(/C=C/C(=O)c2cc3ccccc3oc2=O)c1 [Compound C9]
- reduction of virulence of Pseudomonas aeruginosa in the cabbage model (Pseudomonas aeruginosa): 60%
- pKa (pKa by HCl/KOH titration): 5.66
- transcription of LasR (LasR): downregulated
- transcription of RhIR (RhIR): downregulated
- transcription of PqsR (PqsR): downregulated
- reduction of Psl production [1]: 60%
- flagellate-mediated swimming ability (PAO1 strains): no effect
